Laboratory results: patent US20260159497A1, “SOLID FORMS OF A COMPLEMENT FACTOR B INHIBITOR” (Novartis Pharma AG, priority 2022, published 2026)
Like-named read-outs stand apart in the source and are kept apart here.

Tests used:
[1] = Dynamic vapor sorption (DVS) mass change; format: physicochemical; conditions: Table 6
Text: [table] The mass change by DVS isotherm (2 cycles 40-0-95-0-40% RH) are in the tables below. The mass change is based on the dry weight of each.

[2] = Stability of Forms A and B under stress conditions (temperature/humidity, capsules, light)
[3] = Intrinsic dissolution rate; format: physicochemical
[4] = Solubility in Simulated Fluids at 37° C.; format: physicochemical; conditions: for solubility at 30 min / solubility at 24 h: 37 °C, thermodynamic from solid; for solubility at 30 min: read-out: Solubility (mg/mL) 30 min; for solubility at 24 h: read-out: Solubility (mg/mL) 24 h
Text: Solubility data of Form A (S)-4-(2,2-difluoro-7-((5-methoxy-7-methyl-1H-indol-4-yl)methyl)-7-azaspiro[3.5]nonan-6-yl)benzoic acid, Form B (S)-4-(2,2-difluoro-7-((5-methoxy-7-methyl-1H-indol-4-yl)methyl)-7-azaspiro[3.5]nonan-6-yl)benzoic acid p-toluene sulfonic acid salt, Form C (S)-4-(2,2-difluoro-7-((5-methoxy-7-methyl-1H-indol-4-yl)methyl)-7-azaspiro[3.5]nonan-6-yl)benzoic acid p-toluene sulfonic acid salt, and Form D (S)-4-(2,2-difluoro-7-((5-methoxy-7-methyl-1H-indol-4-yl)methyl)-7-azaspiro[3.5]nonan-6-yl)benzoic acid hydrochloride salt in Simulated Fluids at 37° C.

[5] = pH 2.0, 0.01 M HCl, 37° C., 100 rpm, 120 min
[6] = pH 6.5, phosphate buffer 50 mM (PBS-V1), 37° C., 100 rpm, 120 min

COc1cc(C)c2[nH]ccc2c1CN1CCC2(C[C@H]1c1ccc(C(=O)O)cc1)CC(F)(F)C2.Cc1ccc(S(=O)(=O)O)cc1 [Form B, (S)-4-(2,2-difluoro-7-((5-methoxy-7-methyl-1H-indol-4-yl)methyl)-7-azaspiro[3.5]nonan-6-yl)benzoic acid p-toluene sulfonate]
Mass change by DVS, 1st Sorption (%) ([1]; DVS at 25 degree C., 50% RH): 2.28%
Mass change by DVS, 2nd Desorption (%) ([1]; DVS at 25 degree C., 50% RH): 2.29%
Mass change by DVS, 1st Sorption (%) ([1]; DVS at 25 degree C., 60% RH): 2.37%
Mass change by DVS, 2nd Desorption (%) ([1]; DVS at 25 degree C., 60% RH): 2.38%
Mass change by DVS, 1st Sorption (%) ([1]; DVS at 25 degree C., 70% RH): 2.45%
Mass change by DVS, 2nd Desorption (%) ([1]; DVS at 25 degree C., 70% RH): 2.47%
Mass change by DVS, 1st Sorption (%) ([1]; DVS at 25 degree C., 80% RH): 2.53%
Mass change by DVS, 2nd Desorption (%) ([1]; DVS at 25 degree C., 80% RH): 2.54%
Mass change by DVS, 1st Sorption (%) ([1]; DVS at 25 degree C., 90% RH): 2.60%
Mass change by DVS, 2nd Desorption (%) ([1]; DVS at 25 degree C., 90% RH): 2.61%
Mass change by DVS, 1st Sorption (%) ([1]; DVS at 25 degree C., 95% RH): 2.67%
Mass change by DVS, 2nd Desorption (%) ([1]; DVS at 25 degree C., 95% RH): 2.67%
Mass change by DVS, 1st Desorption (%) ([1]; DVS at 40 degree C., 0% RH): 0.00%
Mass change by DVS, 1st Sorption (%) ([1]; DVS at 40 degree C., 0% RH): 0.00%
Mass change by DVS, 2nd Desorption (%) ([1]; DVS at 40 degree C., 0% RH): −0.01%
Mass change by DVS, 2nd Sorption (%) ([1]; DVS at 40 degree C., 0% RH): −0.01%
Mass change by DVS, 1st Desorption (%) ([1]; DVS at 40 degree C., 10% RH): 0.97%
Mass change by DVS, 1st Sorption (%) ([1]; DVS at 40 degree C., 10% RH): 0.96%
Mass change by DVS, 2nd Desorption (%) ([1]; DVS at 40 degree C., 10% RH): 0.97%
Mass change by DVS, 2nd Sorption (%) ([1]; DVS at 40 degree C., 10% RH): 0.95%
Mass change by DVS, 1st Desorption (%) ([1]; DVS at 40 degree C., 20% RH): 1.61%
Mass change by DVS, 1st Sorption (%) ([1]; DVS at 40 degree C., 20% RH): 1.59%
Mass change by DVS, 2nd Desorption (%) ([1]; DVS at 40 degree C., 20% RH): 1.60%
Mass change by DVS, 2nd Sorption (%) ([1]; DVS at 40 degree C., 20% RH): 1.59%
Mass change by DVS, 1st Desorption (%) ([1]; DVS at 40 degree C., 30% RH): 1.92%
Mass change by DVS, 1st Sorption (%) ([1]; DVS at 40 degree C., 30% RH): 1.90%
Mass change by DVS, 2nd Desorption (%) ([1]; DVS at 40 degree C., 30% RH): 1.91%
Mass change by DVS, 2nd Sorption (%) ([1]; DVS at 40 degree C., 30% RH): 1.90%
Mass change by DVS, 1st Desorption (%) ([1]; DVS at 40 degree C., 40% RH): 2.10%
Mass change by DVS, 1st Sorption (%) ([1]; DVS at 40 degree C., 40% RH): 2.09%
Mass change by DVS, 2nd Desorption (%) ([1]; DVS at 40 degree C., 40% RH): 2.09%
Mass change by DVS, 2nd Sorption (%) ([1]; DVS at 40 degree C., 40% RH): 2.09%
Mass change by DVS, 1st Sorption (%) ([1]; DVS at 40 degree C., 50% RH): 2.21%
Mass change by DVS, 2nd Desorption (%) ([1]; DVS at 40 degree C., 50% RH): 2.22%
Mass change by DVS, 1st Sorption (%) ([1]; DVS at 40 degree C., 60% RH): 2.28%
Mass change by DVS, 2nd Desorption (%) ([1]; DVS at 40 degree C., 60% RH): 2.29%
Mass change by DVS, 1st Sorption (%) ([1]; DVS at 40 degree C., 70% RH): 2.34%
Mass change by DVS, 2nd Desorption (%) ([1]; DVS at 40 degree C., 70% RH): 2.37%
Mass change by DVS, 1st Sorption (%) ([1]; DVS at 40 degree C., 80% RH): 2.40%
Mass change by DVS, 2nd Desorption (%) ([1]; DVS at 40 degree C., 80% RH): 2.44%
Mass change by DVS, 1st Sorption (%) ([1]; DVS at 40 degree C., 90% RH): 2.49%
Mass change by DVS, 2nd Desorption (%) ([1]; DVS at 40 degree C., 90% RH): 2.49%
Mass change by DVS, 1st Sorption (%) ([1]; DVS at 40 degree C., 95% RH): 2.52%
Mass change by DVS, 2nd Desorption (%) ([1]; DVS at 40 degree C., 95% RH): 2.52%
stability in HPMC and HGC capsules ([2]; 50° C. with 11% and 75% RH for 2 weeks): chemically and physically stable
degradation under light stress ([2]; 1200 kLux light stress): about 0.2%
discoloration under light stress ([2]; 1200 kLux light stress): slight discoloration
form change by XRPD after humidity exposure ([2]; exposed to 80% or 92% RH for 24 hrs): no change
chemical stability in bulk state ([2]; stored at 50° C. with 11% RH or 75% RH for 1 week): chemically stable
degradation in bulk state ([2]; stored at 80° C. with 75% RH): about 0.1%
discoloration in bulk state ([2]; stored at 80° C. with 75% RH): slight discoloration
chemical stability in bulk state ([2]; stored at 80° C./11% RH for 1 week): chemically stable
polymorphic form in the stress conditions ([2]; temperature/humidity and light stress conditions): no change
intrinsic dissolution rate ([3]; PBS-V1 (pH 6.5)): 0.18 mg/min/cm^2
intrinsic dissolution rate ([3]; pH 2.0, 0.01 M HCl): 0.015 mg/min/cm^2
form change after intrinsic dissolution [3, 5]: (No form change)
intrinsic dissolution rate [3, 5]: 0.015 mg · min^−1 · cm^−2
form change after intrinsic dissolution [3, 6]: (No form change
intrinsic dissolution rate [3, 6]: 0.18 mg · min^−1 · cm^−2
solubility at 30 min ([4]; fassif, FaSSIF, 30 min): > 2 mg/mL
solubility at 30 min ([4]; fessif, FeSSIF, 30 min): > 2 mg/mL
solubility at 24 h ([4]; fessif, FeSSIF, 24 h): > 2 mg/mL
solubility at 30 min ([4]; pH 7, water, Water, initial pH 7.00, 30 min): 0.48 mg/mL
solubility at 24 h ([4]; pH 7, water, Water, initial pH 7.00, 24 h): 0.56 mg/mL
pH at 24 h ([4]; FaSSGF): 1.5
Solubility (mg/mL) 30 min ([4]; FaSSGF, 30 min): 0.40 mg/mL
Solubility (mg/mL) 24 h ([4]; FaSSGF, 24 h): 0.54 mg/mL
pH at 24 h ([4]; FaSSIF): 6.13
Solubility (mg/mL) 24 h ([4]; FaSSIF, 24 h): 0.53 (salt mg/mL
pH at 24 h ([4]; FeSSIF): 4.87
pH at 24 h ([4]; Water, initial pH 7.00): 3.60
